Publication PMC4191406, “Tumor-targeted in vivo gene silencing via systemic delivery of cRGD-conjugated siRNA” (Nucleic Acids Research, 2014)

Assay: Serum cytokines by ELISA (innate immune response)
Type: in vivo, athymic nude mice (nu/nu)
Conditions: single injection 1 nmol, 6 and 24 h after the injection, n = 3, versus saline
Method: Athymic nude female mice (nu/nu) were injected with 1 nmol (∼0.753 mg/kg; n = 3) of cRGD-siRNA or 1 nmol of cRGD alone (∼0.045 mg/kg; n = 3) in 150 μl of saline. Mice (n = 3) injected with saline alone (200 μl) were used as negative controls. Six hours and 24 h after the injection, 300 μl of blood was drawn from each mouse and the serum was collected. Levels of serum cytokines IFN-α, IFN-γ, IL-6 and IL-12 were determined by ELISA, following manufacturer's recommendations (eBioscience/Affymetrix, USA).

N=C(N)NCCC[C@@H]1NC(=O)[C@H](CCCCNC(=O)COCCOCCNC(=O)CCN2C(=O)C=CC2=O)NC(=O)[C@@H](Cc2ccccc2)NC(=O)[C@H](CC(=O)O)NC(=O)CNC1=O [cRGD, cyclo(Arg-Gly-Asp-D-Phe-Lys[PEG-MAL])]
serum levels of interferons α and γ, interleukins 6 and 12: No significant difference
